# Laboratory results reported in US9422308B2, “Derivatives of docosahexaenoylethanolamide and uses thereof” (The United States of America, as represented by the …, priority 2012, dated 2016).
# Legend:
# [1] = test system: cortical neurons; experiment: neurite growth of embryonic mouse neurons (total neurite length/neuron, MAP2 immunostaining); assay type: cell-based
# Procedure: To obtain embryonic mouse neurons for analysis, pregnant female mice were killed by cervical dislocation after exposure to CO2 inhalation. Embryonic neurons were prepared from E18 or P0 mouse hippocampi or cortex and cultured as described previously (Calderon and Kim, J. Neurochem., 90(4):979-88 (2004), errata in J Neurochem., September; 90(6):1540 (2004)), with slight modification. Briefly, hippocampi or cotices were dissected and dissociated by a method using either 0.25% trypsin (Gibco Invitrogen Corporation, Grand Island, N.Y.) in Hank's balanced salt solution (HBSS) or papain (20-30 U/mL) in dissociation media containing cysteine at 37° C. for 15 min. After the dissociation solution was aspirated off, cells were washed with same volume of HBSS, suspended in neurobasal medium (Gibco) containing 2% B27 supplement (Gibco), 1% glutamine/glutamax mix (1:4) (Gibco), 100 U/ml penicillin (Gibco) and 100 μg/ml streptomycin (Gibco), and seeded on poly-D-lysine chambered slides (Lab-Tek, Naperville, Ill.) at a density of 30,000 cells/cm^2. On the second day after seeding, the cells were treated with fatty acids, synaptamide or one of Compounds 1-50 for 48 h. Docosahexaenoic acid (DHA) and oleic acid (OA) were complexed with fatty acid-free bovine serum albumin (BSA; Sigma, St Louis, Mo.) in the presence of α-tocopherol (Sigma) under an argon atmosphere and darkness to prevent oxidation of the fatty acids. The mixture was mixed with fresh Neurobasal medium containing B27 supplement, glutamine/glutamax mix and antibiotics. Final concentrations of α-tocopherol and BSA in the culture medium were 40 μM and 0.01%, respectively. Alternatively, DHA, OA, synaptamide, or one of Compounds 1-50 were dissolved in DMSO and applied directly together with α-tocopherol. In such case, the final concentration of DMSO is less than 0.005%. All stock solutions were aliquoted under argon and stored at −70° C.
# Cells were fixed with […] (Sigma) in PBS (pH 7.4) for 30 min. After permeabilization with 0.1% Triton X-100 (Sigma), cells were blocked for 1 h at 37° C. with PBS containing 10% goat serum (Gibco), and then incubated with the primary antibody against microtubule-associated protein (MAP2, mouse monoclonal 1:250; Sigma). After washing with PBS, cells were incubated with the corresponding Cy2-, Cy3-conjugated secondary antibody (Jackson Immunoresearch Laboratories Inc., West Grove, Pa.). For the nuclear staining, 0.06% 4,6-Diamidino-2-Phenylindole (Sigma) was used. After immunostaining, images were collected using an inverted motorized 1×81 Olympus (Melville, N.Y.) and the neurite length was analyzed with Metamorph software (Molecular Devices Corporation, Downingtown, Pa.). To minimize bias, neurons were evaluated blindly without the knowledge of sample identity. Four to six fields/well were chosen at random and only non-clustered neurons were evaluated to ensure the precision of the measurements. From each well, over 100 neurons were evaluated at 20× magnification for total neurite length/neuron. The data were obtained from triplicate wells and the experiments were repeated at least three times.
# FIG. 2 provides graphical results of the data shown in Table 2, expressed as total neurite length per neuron. FIG. 3 provides graphical results of these experiments for compounds 11-50 (having designations as provided in Table 1, above), expressed as relative neurite length as compared to untreated controls. FIG. 4 provides graphical results of these experiments for compounds 1-10 (having designations as provided in Table 1, above), as applied to hippocampal neurons.
# An additional assay was performed in which Compounds (A8), 4(A10), and 7(A9) were applied at varying dosages (from 10^−5 nM to 10 nM; 10^−5 nM, 10^−4 nM, 10^−2 nM, 0.1 nM, 1 nM, and 10 nM) as compared to DHA, synaptamide, and oleic acid. Neurite growth was measured at each dosage. Results of this assay are provided at FIG. 1.
# [2] = target: T1, FAAH (Homo sapiens, UniProt O00519); experiment: time course FAAH enzyme assay; assay type: in vitro ADME; settings: for % remaining: 1 mM, pH 9
# T1 sequence (O00519 1-579): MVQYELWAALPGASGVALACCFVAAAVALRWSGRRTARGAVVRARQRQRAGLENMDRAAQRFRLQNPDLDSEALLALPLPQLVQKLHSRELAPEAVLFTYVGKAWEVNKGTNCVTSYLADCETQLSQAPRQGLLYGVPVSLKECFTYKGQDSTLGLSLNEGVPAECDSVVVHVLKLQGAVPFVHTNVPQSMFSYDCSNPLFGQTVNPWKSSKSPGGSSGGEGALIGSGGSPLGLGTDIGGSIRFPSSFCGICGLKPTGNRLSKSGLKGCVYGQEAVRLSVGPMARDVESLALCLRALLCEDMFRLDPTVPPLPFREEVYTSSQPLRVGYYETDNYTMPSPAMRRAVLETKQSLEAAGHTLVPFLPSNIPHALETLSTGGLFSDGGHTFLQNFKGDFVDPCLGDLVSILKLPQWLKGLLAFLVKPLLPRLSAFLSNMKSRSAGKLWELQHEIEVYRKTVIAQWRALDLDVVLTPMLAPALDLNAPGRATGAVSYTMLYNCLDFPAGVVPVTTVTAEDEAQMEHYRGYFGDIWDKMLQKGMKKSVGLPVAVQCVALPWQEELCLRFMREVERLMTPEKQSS
# Procedure: Method development: The signal was optimized for each compound by ESI positive or negative ionization mode. A MS2 SIM scan was used to optimize the precursor ion and a product ion analysis was used to identify the best fragment for analysis and to optimize the collision energy.
# Analysis: Samples were analyzed by LC/MS/MS using a API 3000 coupled with an Shimadzu HPLC and a CTC PAL chilled autosampler, all […] controlled by Analyst software (ABI). After separation on a C18 reverse phase HPLC column (Agilent, Waters, or equivalent). Mobile phase A was 0.1% AcOH in water. Mobile phase B was 0.1% AcOH in methanol. The flow rate was 0.6 mL/min. The gradient program included a 0.5 min hold at 30% B (the starting conditions), followed by a gradient to 100% B over 2.5 min and a 1 min hold at 100% B. The column was then returned to starting conditions and equilibrated over 1.25 min.
# Assay Protocol: Assays were performed at 37° C. at pH=9.0 and involved the use of 0.1 U of FAAH. […] Reaction was terminated after an appropriate time by using protein precipitation treatment with acetonitrile (3:1, v/v).
smiles,measurement,setting,value
"CC/C=C\C/C=C\C/C=C\C/C=C\C/C=C\C/C=C\CCC(=O)NCC(C)(C)O [Compound 1, (4Z,7Z,10Z,13Z,16Z,19Z)—N-(2-hydroxy-2-methylpropyl)docosa-4,7,10,13,16,19-hexaenamide]",Neurite Length/Neuron (mean),"[1]; cortical neurons, 10 nM (FIG. 2), 48 h",41.3 μm
same,effect with respect to cortical neurite growth as compared to DHA,"[1]; cortical neurons, FIGS. 1, 2",superior effect
same,dosage at which activity is exhibited as compared to DHA and synaptamide,"[1]; dosages 10^-5 nM to 10 nM, FIG. 1",activity at significantly lower dosages
same,susceptibility to hydrolysis by FAAH,[2],less susceptible to hydrolysis by FAAH than synaptamide or AEA
same,% remaining,[2]; 0 h,99%
same,% remaining,[2]; 0.5 h,101%
same,% remaining,[2]; 1 h,85%
